Source: US20150191469A1, “COMPOUNDS AND METHODS FOR TREATING HIV” (priority 2012, published 2015)

system: HIV; test: MT4 assay: antiviral HIV activity (cell protection, cell titer glo readout at 96 hours); assay type: cell-based; conditions: Human immunodeficiency virus 1, MT4, 96 h, MT4 cells, cell titer glo readout at 96 hours, 10 point dose response; read-out: HIV MT4 Assay IC50
Protocol: Antiviral HIV activity and cytotoxicity values for compounds of the invention from Table 1 were measured in parallel in the HTLV-1 transformed cell line MT-4 based on the method previously described (Hazen et al., 2007, In vitro antiviral activity of the novel, tyrosyl-based human immunodeficiency virus (HIV) type 1 protease inhibitor brecanavir (GW640385) in combination with other antiretrovirals and against a panel of protease inhibitor-resistant HIV (Hazen et al., “In vitro antiviral activity of the novel, tyrosyl-based human immunodeficiency virus (HIV) type 1 protease inhibitor brecanavir (GW640385) in combination with other antiretrovirals and against a panel of protease inhibitor-resistant HIV”, Antimicrob. Agents Chemother. 2007, 51: 3147-3154; and Pauwels et al., “Sensitive and rapid assay on MT-4 cells for the detection of antiviral compounds against the AIDS virus”, J. of Virological Methods 1987, 16: 171-185).
Luciferase activity was measured 96 hours later by adding a cell titer glo (Promega, Madison, Wis.). Percent inhibition of cell protection data was plotted relative to no compound control. Under the same condition, cytotoxicity of the compounds was determined using cell titer Glo™ (Promega, Madison, Wis.). IC50s were determined from a 10 point dose response curve using 3-4-fold serial dilution for each compound, which spans a concentration range >1000 fold.
These values are plotted against the molar compound concentrations using the standard four parameter logistic equation:
y=((Vmax*x̂n)/(K̂n+x̂n))+Y2
Y2=minimum y n=slope factor
Vmax=maximum y x=compound concentration [M]

Structure (SMILES)	IC50 [nM]
Cc1nc2c(cc(-c3ccnc(-c4ccc5c(cnn5C)c4)c3)n2C)c(-c2ccc(Cl)cc2O)c1[C@H](OC(C)(C)C)C(=O)O [Example 437]	38
Cc1nc2c(cc(-c3nnc(N(C)C)o3)n2C)c(-c2cc(F)c3c(c2C)CCCO3)c1[C@H](OC(C)(C)C)C(=O)O [Example 308]	14
Cc1nc2c(cc(C(=O)N(C)C3CCCCC3)n2C)c(-c2cc(F)c3c(c2C)CCCO3)c1[C@H](OC(C)(C)C)C(=O)O [Example 256]	34.5
Cc1nc2c(cc3n2CCCC3)c(-c2cc(F)c3c(c2C)CCCO3)c1[C@H](OC(C)(C)C)C(=O)O (atropisomer, axis not shown; (M)) [Example 29, (2S)(M)-2-(tert-butoxy)-2-(4-(8-fluoro-5-methylchroman-6-yl)-2-methyl-6,7,8,9-tetrahydropyrido[3,2-b]indolizin-3-yl)acetic acid]	13.8
Cc1nc2c(cc(-c3ccnc(-c4cnc5[nH]ccc5c4)c3)n2C)c(-c2cc(F)c3c(c2C)CCCO3)c1[C@H](OC(C)(C)C)C(=O)O (atropisomer, axis not shown) [Example 62]	2.9
Cc1ccc(-c2c([C@H](OC(C)(C)C)C(=O)O)c(C)nc3c2cc(-c2ccnc(N4CCCN(C5COC5)CC4)c2)n3C)cc1 [Example 432]	200
Cc1nc2c(cc(-c3ccnc(C#Cc4cncn4C)c3)n2C)c(-c2cc(F)c3c(c2C)CCCO3)c1[C@H](OC(C)(C)C)C(=O)O (atropisomer, axis not shown; (M)) [Example 154, (2S)(M)-2-(tert-butoxy)-2-(-4-(8-fluoro-5-methylchroman-6-yl)-1,6-dimethyl-2-(2-((1-methyl-1H-imidazol-5-yl)ethynyl)pyridin-4-yl)-1H-pyrrolo[2,3-b]pyridin-5-yl)acetic acid]	11
Cc1nc2c(cc(-c3ccnc(N4CCCN(C(=O)C5CCOC5)CC4)c3)n2C)c(-c2cc(F)c3c(c2C)CCCO3)c1[C@H](OC(C)(C)C)C(=O)O (stereo partly shown) [Example 105]	54.6
Cc1nc2c(cc(-c3ccnc(N4CC[C@@H](N(C)C)C4)c3)n2C)c(-c2cc(F)c3c(c2C)CCCO3)c1[C@H](OC(C)(C)C)C(=O)O (atropisomer, axis not shown) [Example 120]	45
Cc1nc2c(cc(-c3ccnc(-c4cccc5c4cnn5C)c3)n2C)c(-c2cc(F)c3c(c2C)CCCO3)c1[C@H](OC(C)(C)C)C(=O)O (atropisomer, axis not shown) [Example 58]	5.4
Cc1nc2c(cc(-c3ccnc(-c4ccc5c(c4C)NCCO5)c3)n2C)c(-c2cc(F)c3c(c2C)CCCO3)c1[C@H](OC(C)(C)C)C(=O)O (atropisomer, axis not shown) [Example 42]	3.2
Cc1nc2c(cc(-c3nc(-c4ccc5c(cnn5C)c4)ns3)n2C)c(-c2cc(F)c3c(c2C)CCCO3)c1[C@H](OC(C)(C)C)C(=O)O (atropisomer, axis not shown; (M)) [Example 355, (2S)(M)-2-(tert-butoxy)-2-(-4-(8-fluoro-5-methylchroman-6-yl)-1,6-dimethyl-2-(3-(1-methyl-1H-indazol-5-yl)-1,2,4-thiadiazol-5-yl)-1H-pyrrolo[2,3-b]pyridin-5-yl)acetic acid]	4.7
Cc1nc2c(cc(C(=O)NCc3ccc(F)cc3)n2C)c(-c2cc(F)c3c(c2C)CCCO3)c1[C@H](OC(C)(C)C)C(=O)O [Example 230]	4.7
Cc1nc2c(cc(C(=O)NC[C@H](C)c3ccccc3)n2C)c(-c2cc(F)c3c(c2C)CCCO3)c1[C@H](OC(C)(C)C)C(=O)O [Example 214]	44.6
Cc1nc2c(cc(C(=O)NC3CC3)n2C)c(-c2cc(F)c3c(c2C)CCCO3)c1[C@H](OC(C)(C)C)C(=O)O [Example 234]	44.7
Cc1nc2c(cc(C(=O)NC(C)(C)C)n2C)c(-c2cc(F)c3c(c2C)CCCO3)c1[C@H](OC(C)(C)C)C(=O)O [Example 242]	79.3
Cc1nc2c(cc(-c3nc(N4CCC(N5CCOCC5)CC4)ns3)n2C)c(-c2cc(F)c3c(c2C)CCCO3)c1[C@H](OC(C)(C)C)C(=O)O [Example 380]	1.6

Structure (SMILES)	IC50 [nM]
Cc1nc2c(cc(-c3nc(N4CCC5(CC4)OCCO5)ns3)n2C)c(-c2cc(F)c3c(c2C)CCCO3)c1[C@H](OC(C)(C)C)C(=O)O [Example 377]	5.9
Cc1nc2c(cc(-c3ccnc(N4CCN(C5CCCC5)CC4)c3)n2C)c(-c2cc(F)c3c(c2C)CCCO3)c1[C@H](OC(C)(C)C)C(=O)O (atropisomer, axis not shown) [Example 91]	12.2
Cc1nc2c(cc(CN3CCc4ccc(N5CCCCC5)cc4C3)n2C)c(-c2cc(F)c3c(c2C)CCCO3)c1[C@H](OC(C)(C)C)C(=O)O [Example 291]	44.4
Cc1nc2c(cc(C(=O)N3CC4CN(C5COC5)CC4C3)n2C)c(-c2cc(F)c3c(c2C)CCCO3)c1[C@H](OC(C)(C)C)C(=O)O (stereo partly shown) [Example 189]	1190
Cc1nc2c(cc(-c3ccnc(-c4ccc5c(cnn5C)c4)c3)n2C)c(-c2ccc3c(c2)CCCO3)c1[C@H](OC(C)(C)C)C(=O)O [Example 428]	4.6
CC1=CCN(c2cc(-c3cc4c(-c5cc(F)c6c(c5C)CCCO6)c([C@H](OC(C)(C)C)C(=O)O)c(C)nc4n3C)ccn2)CC1 (atropisomer, axis not shown) [Example 100]	14.2
Cc1nc2c(cc(C(=O)N(C)C)n2C)c(-c2cc(F)c3c(c2C)CCCO3)c1[C@H](OC(C)(C)C)C(=O)O [Example 270]	112
Cc1nc2c(cc(-c3nnc(N4CCC5(CCCCC5)CC4)o3)n2C)c(-c2cc(F)c3c(c2C)CCCO3)c1[C@H](OC(C)(C)C)C(=O)O [Example 321]	13.5
Cc1nc2c(cc(C(=O)NCCOc3ccccc3)n2C)c(-c2cc(F)c3c(c2C)CCCO3)c1[C@H](OC(C)(C)C)C(=O)O [Example 213]	3.9
CCN(C(=O)c1cc2c(-c3cc(F)c4c(c3C)CCCO4)c([C@H](OC(C)(C)C)C(=O)O)c(C)nc2n1C)C1CCCCC1 [Example 261]	46.8
Cc1nc2c(cc(-c3ccnc(-c4ccc5c(cnn5C5CC5)c4)c3)n2C)c(-c2cc(F)c3c(c2C)CCCO3)c1[C@H](OC(C)(C)C)C(=O)O (atropisomer, axis not shown) [Example 54]	4.6
Cc1nc2c(cc(-c3ccnc(C#CCN4CCN(C)CC4)c3)n2C)c(-c2cc(F)c3c(c2C)CCCO3)c1[C@H](OC(C)(C)C)C(=O)O (atropisomer, axis not shown) [Example 160]	150
Cc1nc2c(cc(-c3ccnc(N4CCN(c5nccs5)CC4)c3)n2C)c(-c2cc(F)c3c(c2C)CCCO3)c1[C@H](OC(C)(C)C)C(=O)O (atropisomer, axis not shown) [Example 84]	14.7
Cc1nc2c(cc(-c3cc(NCCN4CCOCC4)ncn3)n2C)c(-c2cc(F)c3c(c2C)CCCO3)c1[C@H](OC(C)(C)C)C(=O)O [Example 365]	86.7
Cc1nc2c(cc(C(=O)N3CCCN(c4nccs4)CC3)n2C)c(-c2cc(F)c3c(c2C)CCCO3)c1[C@H](OC(C)(C)C)C(=O)O [Example 206]	126
Cc1nc2c(cc(C(=O)N3CCN(C(=O)N(C)C)CC3)n2C)c(-c2cc(F)c3c(c2C)CCCO3)c1[C@H](OC(C)(C)C)C(=O)O [Example 220]	1770
Cc1nc2c(cc(-c3ccnc(N4CCCN(C5CCC5)CC4)c3)n2C)c(-c2cc(F)c3c(c2C)CCCO3)c1[C@H](OC(C)(C)C)C(=O)O (atropisomer, axis not shown) [Example 117]	39.1
